Data published in patent US11576913B2 (priority 2018, dated 2023).

How the values were obtained:
[1] = system: healthy, non-dependent, recreational sedative users; assay: Human abuse potential study, adverse events and tolerability; assay type: in vivo; conditions: N = 50
Description: Adverse events were coded to MedDRA terms. Data for AEs were analyzed using the treatment-emergent signs and symptoms (TESS) philosophy. Treatment-emergent signs and symptoms are defined as AEs that: • Emerge during treatment, having been absent at pretreatment; or • Reemerge during treatment, having been present at pretreatment but stopped prior to treatment; or • Worsen in intensity during treatment relative to the pretreatment state, when the AE is continuous.
Subjects were counted only once in the incidence count for a specific MedDRA Preferred Term, although a MedDRA Preferred Term might be reported more than once for a particular subject. Separate summaries will be provided for Treatment-emergent AEs (“TEAEs”) by maximum intensity (mild, moderate, severe) and relationship (yes, no) to study drug. A TEAE was considered related to study drug if the investigator reported the event to be “definitely, probably, possibly, or unlikely” related to treatment on the CRF.

[2] = system: healthy, non-dependent, recreational sedative users; assay: Human abuse potential study, Drug Liking VAS; assay type: in vivo; conditions: for Drug Liking VAS - EMAX LSMean: N = 50, 100 point bipolar scale; for Drug liking from placebo, Triazolam 1 mg compared with Triazolam 0.5 mg (words): 1 mg vs 0.5 mg
Description: This study was designed as a randomized, single-dose, double-blinded, double dummy, crossover study. The study population was healthy, nondependent recreational polydrug users with a history of Central Nervous System (CNS) depressant use.
Subjects were screened no more than 28 days before check-in of period 1. Study drug was administered in each period according to the study randomization schedule. During Qualification, there was a minimum 24 hour washout period between each study drug administration. During the Treatment phase, there was a minimum 48-hour washout period between each study drug administration. Subjects were confined to the unit the day prior to, and for at least approximately 24 hours following, study drug administration during each period. If subjects were discharged between treatment periods, subjects returned to the unit the day prior to dosing.
The Qualification Phase was designed to ensure that polydrug abusing subjects with self-reported recreational CNS depressant/sedative drug experience were able to tolerate and discriminate between orally administered triazolam tablets and placebo as well as to report positive subjective effects of the drug in a controlled laboratory setting. This phase was also used to exclude “placebo responders”, i.e., subjects who report subjective effects of placebo. This phase also helped familiarize subjects with, and trained them in the use of, various scales and questionnaires that measure subjective effects.
The comparators in an abuse potential study are typically controlled substances from the same pharmacologic class as the investigational drug. However, Compound (1C) is a novel drug class for which no controlled substances/drugs of abuse are available for comparison. […] There was no evidence of other effects of interest to abusers, such as perceptual disturbances or stimulation. […] Placebo control was used to establish the frequency and magnitude of changes in clinical endpoints that may occur in the absence of active treatment as well as to minimize subject and investigator bias.
In all of the study phases, treatments were blinded to the greatest extent possible to reduce potential bias during data collection and evaluation of clinical endpoints. Because study subjects were recreational drug users and familiar with the effects of the drug substances being studied, the double-dummy technique was be used in the Treatment Phase to maintain blinding. Subjects received tablets orally in each treatment period. Placebo was matched in size and shape to each of the tablet types, and a method to blind subjects will be employed.
For each phase, subjects received treatments according to the randomization schema. During the Treatment Phase, subjects were be randomized to 1 of sequences in a 6×6 Williams square crossover design.
Compound (1C) was administered orally in an immediate release tablet comprising the pharmaceutically acceptable excipients croscarmellose sodium (FMC Health and Nutrition, Philadelphia, Pa.), hydroxypropylcellulose (Ashland Inc., Covington, Ky.), microcrystalline cellulose (Dupont, Chicago, Ill.), mannitol (SPI Pharma, Wilmington, Del.), magnesium stearate (PlusPharma Inc., Vista, Calif.), and sodium lauryl sulfate (BASF Corp, Upper St. Clair, Pa.). […] Placebo tablets matching the Compound (1C) tablets were orally administered in the same way. The placebo tablets comprised the above-described pharmaceutically acceptable excipients but with no Compound (1C). Triazolam was administered at a dose of 0.5 or 1 mg. Trial endpoints are provided below.
Peak Maximum Effect (Emax) for Drug Liking (“at this moment”) visual analog scale (“VAS”), was measured by study participants providing a score on a 100 point bipolar scale with 100 as strong liking, 50 as the neutral point of neither liking nor disliking, and 0 as strong disliking. […]

[3] = triazolam tablets administered orally; cited from earlier work

Cc1nnc2n1-c1ccc(Cl)cc1C(c1ccccc1Cl)=NC2 [Triazolam, triazolam, reference compound]
Amnesia ([1]; 0.5 mg): 3 (6) n (%) | Ataxia ([1]; 0.5 mg): 21 (42) n (%) | Diplopia ([1]; 0.5 mg): 4 (8) n (%) | Dizziness ([1]; 0.5 mg): 7 (14) n (%) | Euphoric mood ([1]; 0.5 mg): 1 (2) n (%) | Headache ([1]; 0.5 mg): 2 (4) n (%) | Hiccups ([1]; 0.5 mg): 10 (20) n (%) | Nausea ([1]; 0.5 mg): 0 n (%) | Somnolence ([1]; 0.5 mg): 45 (90) n (%) | Vision blurred ([1]; 0.5 mg): 3 (6) n (%) | Amnesia ([1]; 1 mg): 12 (24) n (%) | Ataxia ([1]; 1 mg): 28 (56) n (%) | Diplopia ([1]; 1 mg): 5 (10) n (%) | Dizziness ([1]; 1 mg): 6 (12) n (%) | Euphoric mood ([1]; 1 mg): 2 (4) n (%) | Headache ([1]; 1 mg): 0 n (%) | Hiccups ([1]; 1 mg): 14 (28) n (%) | Nausea ([1]; 1 mg): 1 (2) n (%) | Somnolence ([1]; 1 mg): 49 (98) n (%) | Vision blurred ([1]; 1 mg): 2 (4) n (%) | Drug Liking VAS - EMAX Diff from Placebo LSMean ([2]; 0.5 mg): 20.4 points | Drug liking compared with placebo (words) ([2]; 0.5 mg): significant | Drug Liking VAS - EMAX LSMean ([2]; 0.5 mg single oral dose): 75.5 | Drug liking compared with placebo (words) ([2]; 0.5 mg, listed as triazolam): significantly greater than placebo | Drug Liking VAS - EMAX Diff from Placebo LSMean ([2]; 1 mg): 23.5 points | Drug liking compared with placebo (words) ([2]; 1 mg): significant | Drug Liking VAS - EMAX LSMean ([2]; 1 mg single oral dose): 78.6 | Drug liking from placebo, Triazolam 1 mg compared with Triazolam 0.5 mg (words) [2]: Triazolam 1 mg had greater drug liking from | Drug liking from placebo, Triazolam 1 mg compared with Triazolam 0.5 mg (words) ([2]; listed as triazolam): greater drug liking from placebo than triazolam 0.5 mg | Drug liking compared with placebo (words) ([2]; 1 mg, listed as triazolam): significantly greater than placebo | Time to maximum concentration [3]: ~1.3 h
